Assay results taken from patent publication US5776886A, “Intravaginal preparation containing physiologically active peptide” (Teikoku Seiyaku Kabushiki Kaisha, priority 1993, dated 1998).

Legend:
Format in all cases: in vivo, Wistar rats
[1] = system: calcium level in the serum; test: Experiment 6: effects of the concentration of organic acid on serum calcium reduction; conditions: for Reduction rate (%) of calcium level in the serum: pH 3.5, + S-970, intravaginal suppository 20 μg, rats
Experimental: (§1) An intravaginal suppository was administered into the rat's vagina, and the blood was collected periodically (2, 4 and 6 hours after administration of the test preparation).
(§2) The serum was separated, and the calcium level in the serum was determined by using a kit for determination of calcium (Calcium C Test Wako; manufactured by Wako Pure Chemical Industries, Ltd.) (n=3).
(§3) In the same manner as in Experiment 1, each intravaginal suppository was administered to the rat's vagina, and the blood was collected periodically (2, 4 and 6 hours after administration of intravaginal suppository), and the calcium level in the serum thereof was determined (n=3).

[2] = system: calcium level in the serum; test: Experiment 7: effects of pH of the solution in the suppository on serum calcium reduction; conditions: for Reduction rate (%) of calcium level in the serum: citric acid + S-970, intravaginal 20 μg, rats
Experimental: as §1, §2, §3

[3] = system: calcium level in the serum; test: Experiment 5: sucrose fatty acid ester with various organic acids, serum calcium reduction; conditions: for Reduction rate (%) of calcium level in the serum: intravaginal suppository 20 μg, rats
Experimental: as §1, §2
In the same manner as in Experiment 1, each intravaginal suppository was administered to the rat's vagina, and the blood was collected periodically (2, 4 and 6 hours after administration of intravaginal suppository), and the calcium level in the serum thereof was determined (n=5).

With Human calcitonin the “calcium level in the blood” value ([1]; citric acid 1, 2, 5 or 10 w/w % with sucrose fatty acid ester) was “reduced at any concentration of citric acid to be used”, the “Reduction rate (%) of calcium level in the serum” value ([1]; organic acid (citric acid) 1 w/w %, 2 hr) was 14.6% and the “Reduction rate (%) of calcium level in the serum” value ([1]; organic acid (citric acid) 1 w/w %, 4 hr) was 15.7%. The “Reduction rate (%) of calcium level in the serum” value ([1]; organic acid (citric acid) 1 w/w %, 6 hr) was 9.2%, the “Reduction rate (%) of calcium level in the serum” value ([1]; organic acid (citric acid) 2 w/w %, 2 hr) was 15.3% and the “Reduction rate (%) of calcium level in the serum” value ([1]; organic acid (citric acid) 2 w/w %, 4 hr) was 18.7%. The “Reduction rate (%) of calcium level in the serum” value ([1]; organic acid (citric acid) 2 w/w %, 6 hr) was 8.2%, the “Reduction rate (%) of calcium level in the serum” value ([1]; organic acid (citric acid) 5 w/w %, 2 hr) was 17.9% and the “Reduction rate (%) of calcium level in the serum” value ([1]; organic acid (citric acid) 5 w/w %, 4 hr) was 19.4%. The “Reduction rate (%) of calcium level in the serum” value ([1]; organic acid (citric acid) 5 w/w %, 6 hr) was 7.5%, the “Reduction rate (%) of calcium level in the serum” value ([1]; organic acid (citric acid) 10 w/w %, 2 hr) was 18.4% and the “Reduction rate (%) of calcium level in the serum” value ([1]; organic acid (citric acid) 10 w/w %, 4 hr) was 19.0%. For the same substance, the “Reduction rate (%) of calcium level in the serum” value ([1]; organic acid (citric acid) 10 w/w %, 6 hr) was 5.0%, the “promotion effect of a combination of a sucrose fatty acid ester and citric acid” value ([2]; pH of the solution 3.0 to 5.5) was “observed in the cases of pH 3.0 to 5.5, and the effects thereof were not significantly different in the cases of pH 3.0 to 4.5” and the “Reduction rate (%) of calcium level in the serum” value ([2]; pH of the solution in suppository 3.0, 2 hr) was 11.0%. The “Reduction rate (%) of calcium level in the serum” value ([2]; pH of the solution in suppository 3.0, 4 hr) was 22.0%, the “Reduction rate (%) of calcium level in the serum” value ([2]; pH of the solution in suppository 3.0, 6 hr) was 8.7% and the “Reduction rate (%) of calcium level in the serum” value ([2]; pH of the solution in suppository 3.5, 2 hr) was 9.4%. For the same substance, the “Reduction rate (%) of calcium level in the serum” value ([2]; pH of the solution in suppository 3.5, 4 hr) was 19.8%, the “Reduction rate (%) of calcium level in the serum” value ([2]; pH of the solution in suppository 3.5, 6 hr) was 8.8% and the “Reduction rate (%) of calcium level in the serum” value ([2]; pH of the solution in suppository 4.0, 2 hr) was 9.4%. For the same substance, the “Reduction rate (%) of calcium level in the serum” value ([2]; pH of the solution in suppository 4.0, 4 hr) was 20.2%, the “Reduction rate (%) of calcium level in the serum” value ([2]; pH of the solution in suppository 4.0, 6 hr) was 10.2% and the “Reduction rate (%) of calcium level in the serum” value ([2]; pH of the solution in suppository 4.5, 2 hr) was 9.5%. For the same substance, the “Reduction rate (%) of calcium level in the serum” value ([2]; pH of the solution in suppository 4.5, 4 hr) was 22.8%, the “Reduction rate (%) of calcium level in the serum” value ([2]; pH of the solution in suppository 4.5, 6 hr) was 9.1% and the “Reduction rate (%) of calcium level in the serum” value ([2]; pH of the solution in suppository 5.0, 2 hr) was 10.2%. The “Reduction rate (%) of calcium level in the serum” value ([2]; pH of the solution in suppository 5.0, 4 hr) was 11.4%, the “Reduction rate (%) of calcium level in the serum” value ([2]; pH of the solution in suppository 5.0, 6 hr) was 2.7% and the “Reduction rate (%) of calcium level in the serum” value ([2]; pH of the solution in suppository 5.5, 2 hr) was 8.1%. For the same substance, the “Reduction rate (%) of calcium level in the serum” value ([2]; pH of the solution in suppository 5.5, 4 hr) was 13.2%, the “Reduction rate (%) of calcium level in the serum” value ([2]; pH of the solution in suppository 5.5, 6 hr) was 4.3% and the “Reduction rate (%) of calcium level in the serum” value ([3]; organic acid: citric acid (pH 4) + Ryoto-Sugar Ester R-970, 2 hr) was 11.4%. The “Reduction rate (%) of calcium level in the serum” value ([3]; organic acid: citric acid (pH 4) + Ryoto-Sugar Ester R-970, 4 hr) was 19.6%, the “Reduction rate (%) of calcium level in the serum” value ([3]; organic acid: citric acid (pH 4) + Ryoto-Sugar Ester R-970, 6 hr) was 8.4% and the “Reduction rate (%) of calcium level in the serum” value ([3]; organic acid: lactic acid (pH 4) + Ryoto-Sugar Ester R-970, 2 hr) was 17.0%. The “Reduction rate (%) of calcium level in the serum” value ([3]; organic acid: lactic acid (pH 4) + Ryoto-Sugar Ester R-970, 4 hr) was 10.6%, the “Reduction rate (%) of calcium level in the serum” value ([3]; organic acid: lactic acid (pH 4) + Ryoto-Sugar Ester R-970, 6 hr) was 5.4% and the “Reduction rate (%) of calcium level in the serum” value ([3]; organic acid: malic acid (pH 4) + Ryoto-Sugar Ester R-970, 2 hr) was 18.6%. The “Reduction rate (%) of calcium level in the serum” value ([3]; organic acid: malic acid (pH 4) + Ryoto-Sugar Ester R-970, 4 hr) was 13.0%, the “Reduction rate (%) of calcium level in the serum” value ([3]; organic acid: malic acid (pH 4) + Ryoto-Sugar Ester R-970, 6 hr) was 7.0% and the “Reduction rate (%) of calcium level in the serum” value ([3]; organic acid: tartaric acid (pH 4) + Ryoto-Sugar Ester R-970, 2 hr) was 12.2%. For the same substance, the “Reduction rate (%) of calcium level in the serum” value ([3]; organic acid: tartaric acid (pH 4) + Ryoto-Sugar Ester R-970, 4 hr) was 8.0%, the “Reduction rate (%) of calcium level in the serum” value ([3]; organic acid: tartaric acid (pH 4) + Ryoto-Sugar Ester R-970, 6 hr) was 3.4% and the calcium level ([3]; sucrose fatty acid ester with citric, tartaric, lactic or malic acid) was “significantly reduced regardless of any organic acid to be used”.
